Reference: ChEMBL document CHEMBL4028861, “Selective Nonsteroidal Glucocorticoid Receptor Modulators for the Inhaled Treatment of Pulmonary Diseases” (J Med Chem, 2017)

Legend:
[1] = Intrinsic clearance in human hepatocytes assessed per million cells; type: ADME, cell-based, Hepatocyte; details: read-out: CLH
[2] = Lipophilicity, log D of the compound by chromatography; type: physicochemical
[3] = Intrinsic clearance in Wistar Han rat hepatocytes assessed per 10^6 cells; type: ADME, cell-based, Hepatocyte; details: read-out: CLH
[4] = Clearance in Wistar Han rat at 1 umol/kg, iv administered as bolus dose by LC-MS/MS analysis; type: ADME, organism-based; details: in vivo
[5] = Volume of distribution at steady state in Wistar Han rat at 1 umol/kg, iv administered as bolus dose by LC-MS/MS analysis; type: ADME, organism-based; details: in vivo, read-out: Vdss
[6] = Terminal half life in Wistar Han rat 1 umol/kg, iv administered as bolus dose by LC-MS/MS analysis; type: ADME, organism-based; details: in vivo, read-out: beta t1/2 (converted)
[7] = Oral bioavailability in Wistar Han rat administered via gavage by LC-MS/MS analysis; type: ADME, organism-based; details: in vivo
[8] = tested on: Lung; experiment: Drug uptake in Wistar Han rat lung at 0.1 umol/kg, administered via intratracheal instillation after 4 hrs by LC-MS/MS analysis; type: ADME, tissue-based; details: in vivo, inhaled_or_intranasal
[9] = tested on: Lung; experiment: Drug uptake in Wistar Han rat lung at 0.1 umol/kg, administered via intratracheal instillation after 24 hrs by LC-MS/MS analysis; type: ADME, tissue-based; details: in vivo, inhaled_or_intranasal
[10] = AUC (0 to infinity) in Wistar Han rat lung at 0.1 umol/kg, administered via intratracheal instillation by LC-MS/MS analysis; type: ADME, tissue-based; design: dose 0.1 umol/kg, time infinity; details: inhaled or intranasal
[11] = Apparent terminal half life in Wistar Han rat lung at 0.1 umol/kg, administered via intratracheal instillation by LC-MS/MS analysis; type: ADME, tissue-based; details: inhaled or intranasal, read-out: betat1/2(app) (converted)
[12] = Mean residence time in Wistar Han rat lung at 0.1 umol/kg, administered via intratracheal instillation by LC-MS/MS analysis; type: ADME, tissue-based; details: inhaled or intranasal
[13] = Cmax in Wistar Han rat plasma at 0.1 umol/kg, administered via intratracheal instillation by LC-MS/MS analysis; type: ADME; design: dose 0.1 umol/kg; details: inhaled or intranasal

hepatocyte CLint [1]: 28 µL/min/1e6 cells
chromatographic logD [2]: 5.5
hepatocyte CLint [3]: 22 µL/min/1e6 cells
clearance [4]: 42 mL/min/kg
Vd [5]: 10 L/kg
half-life [6]: 7.4 h
bioavailability [7]: 11%
Drug uptake [8]: 4.5 %ID
Drug uptake [9]: 0.8 %ID
AUC(0-inf) [10]: 12 µM·h
half-life [11]: 8.9 h
MRT [12]: 8.8 h
Cmax [13]: 30 nM
SMILES: C[C@H](NC(=O)C(C)(F)F)[C@H](Oc1ccc2c(cnn2-c2ccc(F)cc2)c1)c1ccc2c(c1)OCCO2
